According to publication PMC7228089, “Odiparcil, a potential glycosaminoglycans clearance therapy in mucopolysaccharidosis VI—Evidence from in vitro and in vivo models” (PLoS ONE, 2020):

Legend:
[1] = test system: Primary skin fibroblasts from MPS VI patients GM00538 and GM02572; test: Intracellular chondroitin sulphate ([CS-56] immunofluorescence) in MPS VI patient skin fibroblasts; type: cell-based, human; conditions: 72 h
Description: Primary skin fibroblasts from MPS VI patients GM00538 and GM02572 were obtained from the NIGMS Human Genetic Cell Repository at the Coriell Institute for Medical Research. Cell culturing was done according to the conditions provided by the Coriell Institute. For evaluation of the effect of odiparcil, cells were seeded in 96 well imaging plates (Falcon Cat N 353219) and two types of treatment were evaluated: i) prophylactic conditions—cells were treated with odiparcil before reaching confluence, 24 hours after plating; and ii) curative conditions—cells were treated with odiparcil after reaching confluence (10 days culturing). Cells were treated by odiparcil added to the culture media. This was done by replacing the initial culture media by media containing 0.1% DMSO with or without odiparcil (at 0.01, 0.03, 0.1, 0.3, 1, 3 and 10 μM). For treatment, the cells were incubated for 72 hours at 37°C, 5% CO2. All experimental conditions were performed in triplicate, i.e., 3 wells/test condition.
After odiparcil treatment as described above, culture media were removed to be used for dimethylmethylene blue (DMMB) assay and the cells were fixed in PFA 4%. […]
For statistical analyses, commercial software (GraphPad Prism 5) was used. EC50 were calculated using the build in function Nonlinear fit for “log (inhibitor) vs. response—Variable slope (four parameters)”. […]

Arsb^- mice = test: Granule accumulation in leukocytes (May-Grunwald-Giemsa blood smears); type: in vivo; conditions: early disease treatment, 6 months, high dose (4.5 g/kg diet)
Description: MPS VI model nonsense mutation Arsb^m1J homozygous mice (referred to as Arsb^- throughout the manuscript) and WT littermates were obtained from internal breeding of stock mice derived from The Jackson Laboratory strain No: 005598 (C57BL/6J-Arsb^m1J/GrsrJ). Genotyping and Arsb^m1J mutation identification were performed according to the protocol provided by The Jackson Laboratory. Each study group contained mix of male and female: 6 animals in disease progression studies and between 8 and 12 animals in odiparcil treatment studies.
Housing conditions. The animals were housed in groups of 3–10 (for mice) or 2 (for rats) in polypropylene cages (floor area = 1032 cm^2) under standard conditions: room temperature (22 ± 2°C), hygrometry (55 ± 10%), light/dark cycle (12h/12h), air replacement (15–20 volumes/hour), water and food ad libitum. Mice were allowed to habituate for at least 5 days prior to experimentation. Mice were numbered by marking their tail using indelible markers. […]
Quantification of the accumulation of granules in leukocytes was done after May-Grunwald–Giemsa staining of blood smears and microscopic examination. […] Only blood smears from WT chow diet, Arsb^- chow diet and Arsb^- treated with high dose of odiparcil (4.5 g/kg diet) were analyzed. […]

SMILES: Cc1cc(=O)oc2cc(O[C@@H]3SC[C@@H](O)[C@H](O)[C@H]3O)ccc12 [Odiparcil, 4-methyl-7-(5-thio-β-D-xylopyranosyloxy)-2 H-chromen-2-one]
- Effect on intracellular pool of CS ([1]; 10 μM odiparcil): almost completely eliminated intracellular pool of CS
- EC50 ([1]; Homo sapiens, Skin fibroblast, growing and confluent cell culture conditions, read-out: EC50 for the reduction of intracellular CS levels): ~1000 nM
- Leukocytes with high granules accumulation (Arsb^- mice): reduced number of leukocytes with high granules accumulation
